From ChEMBL document CHEMBL4699533, “Compounds from Toddalia asiatica: Immunosuppressant Activity and Absolute Configurations” (J Nat Prod, 2020)
Calls of active or inactive are those of the source. No cut-off for these calls is given here.

What was measured:
T cell [1] = assay: Inhibition of anti-human CD3/CD28/mAbs-stimulated human T-cell proliferation at 30 uM after 72 hrs by CFSE staining based flow cytometric analysis; assay type: functional, tissue-based
[2] = (§1) Inhibition of anti-human CD3/CD28/mAbs-stimulated human T-cell proliferation after 72 hrs by CFSE staining based flow cytometric analysis; assay type: functional, tissue-based
T cell [3] = assay: as §1; assay type: functional, tissue-based
[4] = Cytotoxicity against human T-cell assessed reduction in cell viability at 30 uM after 72 hrs; assay type: tissue-based
[5] = Cytotoxicity against human T-cell assessed reduction in cell viability at 10 uM after 72 hrs; assay type: tissue-based

SMILES	inhibition (T cell [1])	also measured
COc1cc2oc(=O)ccc2c(OC)c1C[C@H](O)C(C)(C)O[C@@H]1O[C@H](CO)[C@@H](O)[C@H](O)[C@H]1O	Active	
COc1ccc([C@@H]2CC(=O)c3c(O)cc(O[C@@H]4O[C@H](CO[C@@H]5O[C@@H](C)[C@H](O)[C@@H](O)[C@H]5O)[C@@H](O)[C@H](O)[C@H]4O)cc3O2)cc1O	Active	
COc1cc2oc(=O)ccc2c(OC)c1CC(O)C(C)(C)O (centres undefined)	Active	
COc1ccc2c(c1OC)CN(C)CCc1cc3c(cc1C(=O)C2)OCO3	Active	
COc1cc(O)c(CCC(=O)O)c(OC)c1CC(O)C(C)(C)O (centres undefined)	Active	
COc1cc2oc(=O)ccc2c(OC)c1C[C@@H](O)C(C)(C)O[C@@H]1O[C@H](CO)[C@@H](O)[C@H](O)[C@H]1O	Active	
O=C(/C=C/c1ccc(O)cc1)NCCc1ccc(O)cc1	Active	
COc1cc2c(cc1OC)-c1ccc3cc4c(cc3c1N(C)C2)OCO4		IC50 [2]: 6.7 µM; inhibition (T cell [3]): Dose-dependent effect; Activity [4]: Toxic
COc1cc2oc(=O)ccc2c(OC)c1C(=O)O	Active	
COc1cc(C(=O)O)cc(OC)c1O	Active	
COc1cc2oc(=O)ccc2c(OC)c1CC(O[C@@H]1O[C@H](CO)[C@@H](O)[C@H](O)[C@H]1O)C(C)(C)O (some centres undefined)	Active	
COc1cc(/C=C/C(=O)OC[C@H]2O[C@@H](OC[C@@H](Cc3cc(OC)c(O)c(OC)c3)[C@@H](CO)Cc3cc(OC)c(O)c(OC)c3)[C@H](O)[C@@H](O)[C@@H]2O)cc(OC)c1O	Active	
COc1cc2c[n+](C)c3c4cc5c(cc4ccc3c2cc1OC)OCO5.[Cl-] [NITIDINE CHLORIDE]		IC50 [2]: 0.4 µM; inhibition (T cell [3]): Dose-dependent effect; Activity [4]: Toxic; Activity [5]: Toxic
COc1cc(/C=C/C(=O)OC[C@H]2O[C@@H](OC[C@H]3[C@H](CO)Cc4cc(OC)c(O)c(OC)c4[C@@H]3c3cc(OC)c(O)c(OC)c3)[C@H](O)[C@@H](O)[C@@H]2O)cc(OC)c1O	Active	
